Experimental findings from PubChem BioAssay AID1195 (EPA DSSTox, 2008) are described below.

The series concerns human maximum recommended daily dose, FDA database. Put plainly: DSSTox (FDAMDD) FDA Maximum (Recommended) Daily Dose Database. As to conditions: stronger effect = lower value. From the text: The Food and Drug Administration (FDA) Center for Drug Evaluation and Research, Office of Pharmaceutical Science, Informatics and Computational Safety Analysis Staff's Maximum Recommended Daily Dose (FDAMDD) database contains values for over 1200 pharmaceuticals listed in Martindale: The Extra Pharmacopoeia (1973, 1983, and 1993) and The Physicians' Desk Reference (1995 and 1999). Some classes of chemicals were excluded from the FDAMDD database due to their unsuitability for most QSAR modeling programs. These were inorganic chemicals, high molecular weight polymers (>5000 Daltons), fibers, salts, mixtures of organic chemicals, and small molecules (<100 Daltons). FDAMDD is the non-proprietary portion of the database that was used in the QSAR analysis reported in the Main Citation. DSSTox FDAMDD has fewer substance records than the original MRDD Source database due to consolidation of partial structures (i.e., complexed entities) into a single record and elimination of duplicate entries. DSSTox FDAMDD also differs from the MRDD Source database in presenting complete structural information pertaining to the actual salt or complexed form corresponding to the listed ChemicalName and CASRN. According to the Source authors, there are a number of cases where multiple related forms or derivatives of a drug were listed as separate records but were assumed to fall under the same clinical toxicity assessment and, therefore, assigned the same Dose_MRDD_mg activity value. For the DSSTox FDAMDD, we have labeled these derivatives in the ChemClass_MRDD_grouping field and provide their counts in the ChemicalReplicateCount field to highlight their special nature.
Maximum recommended daily dose (or maximum recommended therapeutic dose) values were determined from pharmaceutical clinical trials that employed an oral route of exposure and daily treatments, usually for 3-12 months. Drugs were given as single or divided dose treatment regimens to achieve desired pharmacological effects. Roughly 5% of the pharmaceuticals in the FDAMDD data file were antineoplastics and anesthetics and were administered intravenously and/or intramuscularly. When separate MRDDs were reported for different routes of exposure, only the oral MRDD was included in the data file and only MRDD values reported for the average adult patient were used. Pharmaceuticals that are administered orally are usually tested over a limited range of doses and have MRDDs reported as mg/day. The mg/day unit was converted to mg/kg-body weight (bw)/day based upon an average adult weighing 60 kg. In contrast, the dose unit for most antineoplastic drug MRDDs is reported as mg/m2 which was converted to mg/kg-bw/day using the formula mg/kg-bw/day = mg/m2/37 for an average adult. Additionally, a few drugs had MRDDs reported in parts per million (ppm) which were converted to mg/kg-bw/day on the basis that 1000 ppm equals 25 mg/kg-bw/day for an average 60 kg adult. Activity Score is mapping of LOG10(1/Dose_MRDD_mmol) spanning activity range [MIN, MAX] onto Integer 1-100 Activity range, where 100 is highest potency and 1 is lowest potency: ActivityScore = 100 * INTEGER[(LOGINV_MRDD_mmol - MIN)/(MAX […] MIN)]. Activity Outcome is "active" for all substances, since Dose_MRDD_mmol is reported for all substances.

[1] abbreviates: TherapeuticCategory: antibacterial.
Where [2] appears, read: TherapeuticCategory: antiulcerative.
[3] abbreviates: TherapeuticCategory: antineoplastic.
Setting [4] is: TherapeuticCategory: anthelmintic.

In the case of `COc1ccc(C(=O)Nc2ccccc2CCC2CCCCN2C)cc1` (stereo not drawn), the maximum recommended daily dose (mmol/kg-bw/day) (TherapeuticCategory: antiarrhythmic) was 0.00945. Consider `C[C@]12CCC(=O)C=C1C=C[C@@H]1[C@@H]2CC[C@@]2(C)[C@H]1CC[C@@]2(O)CCC(=O)O`, for which the maximum recommended daily dose (mmol/kg-bw/day) (TherapeuticCategory: diuretic) was 0.0371. For `CCN1CCN(C(=O)N[C@@H](C(=O)N[C@@H]2C(=O)N3C(C(=O)O)=C(CSc4nnnn4C)CS[C@H]23)c2ccc(O)cc2)C(=O)C1=O`, under setting [1], the maximum recommended daily dose (mmol/kg-bw/day) was 0.31.

For `O=c1ccc2ccccc2o1`, where the note is “TherapeuticCategory: pharmaceutic aid”, the maximum recommended daily dose (mmol/kg-bw/day) is 0.0114. Regarding `CN(C)CCOC(C)(c1ccccc1)c1ccccn1` (stereo not drawn), where the note is “TherapeuticCategory: antihistaminic, hypnotic”, the maximum recommended daily dose (mmol/kg-bw/day) is 0.00154. Take `CN=C(NC#N)NCCSCc1nc[nH]c1C`: the maximum recommended daily dose (mmol/kg-bw/day) under setting [2] was 0.159. In the case of `N[C@@H](Cc1ccc(N(CCCl)CCCl)cc1)C(=O)O`, the maximum recommended daily dose (mmol/kg-bw/day) under setting [3] was 0.000328. Take `CC(C)N=c1cc2n(-c3ccc(Cl)cc3)c3ccccc3nc-2cc1Nc1ccc(Cl)cc1`: under setting [1], the maximum recommended daily dose (mmol/kg-bw/day) was 0.00703. For the compound `COc1cc(C[C@@H]2c3c(cc(OC)c(OC)c3OC)CC[N@@+]2(C)CCCOC(=O)CCC(=O)OCCC[N@@+]2(C)CCc3cc(OC)c(OC)c(OC)c3[C@@H]2Cc2cc(OC)c(OC)c(OC)c2)cc(OC)c1OC`, the maximum recommended daily dose (mmol/kg-bw/day) (TherapeuticCategory: skeletal muscle relaxant, neuromuscular blocker) is 4.52e-05. In the case of `C[C@@H]1C[C@@]2(C)[C@@H](CC[C@@H]3[C@@H]2CC[C@]2(C)[C@@H](O)CC[C@@H]32)CC1=O`, the maximum recommended daily dose (mmol/kg-bw/day) under setting [3] was 0.00549.

For the compound `CC(C)NCC1CCc2cc(CO)c([N+](=O)[O-])cc2N1` (stereo not drawn), the maximum recommended daily dose (mmol/kg-bw/day) under setting [4] was 0.215. As to `O=P(O)(O)OCC(O)CO` (stereo not drawn), for the setting “TherapeuticCategory: none”, the maximum recommended daily dose (mmol/kg-bw/day) is 0.388. As for `CC(=O)Nc1ccc(OC(=O)c2ccccc2OC(C)=O)cc1`, the maximum recommended daily dose (mmol/kg-bw/day) (TherapeuticCategory: analgesic, antipyretic, anti inflammatory) was 0.425. `CCOc1c(N2CCOCC2)cnn(C)c1=O`: the maximum recommended daily dose (mmol/kg-bw/day) (TherapeuticCategory: analgesic, anti inflammatory) is 0.0139.

For `OCCOCCN1CCN(C2=Nc3ccccc3Sc3ccccc32)CC1`, the maximum recommended daily dose (mmol/kg-bw/day) (TherapeuticCategory: antipsychotic) is 0.0347. As to `C#C[C@]1(O)CC[C@H]2[C@@H]3CCc4cc(OC)ccc4[C@H]3CC[C@@]21C`, the maximum recommended daily dose (mmol/kg-bw/day) (TherapeuticCategory: estrogen) is 2.67e-06.

Regarding `CC1(C)O[C@@H]2[C@@H](CO[C@@]3(COS(N)(=O)=O)OC(C)(C)O[C@@H]23)O1`, the maximum recommended daily dose (mmol/kg-bw/day) (TherapeuticCategory: antiepileptic) is 0.0197. Turning to `O=C(O)c1[nH]n(-c2ccc(S(=O)(=O)O)cc2)c(=O)c1N=Nc1ccc(S(=O)(=O)O)cc1`, the maximum recommended daily dose (mmol/kg-bw/day) (TherapeuticCategory: dye) is 0.014. `Cc1nnc2n1-c1ccc(Cl)cc1C(c1ccccc1)=NC2`: the maximum recommended daily dose (mmol/kg-bw/day) (TherapeuticCategory: anxiolytic) is 0.000541. `O=C1c2ccccc2C(=O)C1c1ccccc1`: the maximum recommended daily dose (mmol/kg-bw/day) (TherapeuticCategory: anticoagulant) was 0.015. With `O=C(O)CCC(=O)O`, under setting [2], the maximum recommended daily dose (mmol/kg-bw/day) is 0.847. `COc1ccc2c3c1O[C@H]1C(=O)CC[C@@]4(O)[C@@H](C2)N(C)CC[C@]314`: the maximum recommended daily dose (mmol/kg-bw/day) (TherapeuticCategory: narcotic analgesic) was 0.0169. For the compound `OC1C(O)C(O)C(O)C(O)C1O` (stereo not drawn), the maximum recommended daily dose (mmol/kg-bw/day) (TherapeuticCategory: vitamin B complex, lipotropic) was 0.555. As to `COC(=O)C1=CCCN(C)C1`, the maximum recommended daily dose (mmol/kg-bw/day) under setting [4] was 0.000215. As to `C#C[C@]1(O)CC[C@H]2[C@@H]3CCC4=C(CCC(=O)C4)[C@H]3CC[C@@]21C`, for the setting “TherapeuticCategory: progestogen”, the maximum recommended daily dose (mmol/kg-bw/day) is 0.00224. On to `CC(CCc1ccc(O)cc1)NCCc1ccc(O)c(O)c1` (stereo not drawn), for which, under “TherapeuticCategory: cardiotonic”, the maximum recommended daily dose (mmol/kg-bw/day) was 0.000133. As for `CN(Cc1cc(Br)cc(Br)c1N)C1CCCCC1`, where the note is “TherapeuticCategory: expectorant, mucolytic”, the maximum recommended daily dose (mmol/kg-bw/day) was 0.00213. Regarding `CC(C)c1cccc(C(C)C)c1O`, for the setting “TherapeuticCategory: anesthetic”, the maximum recommended daily dose (mmol/kg-bw/day) was 0.014. As for `CC(Oc1c(Cl)cccc1Cl)C1=NCCN1` (stereo not drawn), the maximum recommended daily dose (mmol/kg-bw/day) (TherapeuticCategory: antihypertensive) is 0.000154. Regarding `Cc1onc(-c2c(F)cccc2Cl)c1C(=O)N[C@@H]1C(=O)N2[C@@H]1SC(C)(C)[C@@H]2C(=O)O`, the maximum recommended daily dose (mmol/kg-bw/day) under setting [1] is 0.147.

Take `CC(C)(C)c1ccc(C(O)CCCN2CCC(C(O)(c3ccccc3)c3ccccc3)CC2)cc1` (stereo not drawn): the maximum recommended daily dose (mmol/kg-bw/day) (TherapeuticCategory: antihistaminic) was 0.00424. For the compound `Nc1nc(F)nc2c1ncn2[C@@H]1O[C@H](COP(=O)(O)O)[C@@H](O)[C@@H]1O`, the maximum recommended daily dose (mmol/kg-bw/day) under setting [3] is 0.00185. In the case of `CC(C)(C(=O)c1cccnc1)c1cccnc1`, the maximum recommended daily dose (mmol/kg-bw/day) (TherapeuticCategory: diagnostic aid) is 0.331.
